Test results: ChEMBL document CHEMBL5321264, “Proteomic Changes in Methicillin-Resistant Staphylococcus aureus Exposed to Cannabinoids” (2023)
Converted amounts (≈) assume the structure as drawn. The source made the active and inactive calls. The rule behind the calls is not given here.

Legend:
[1] = system: Staphylococcus aureus; assay: Upregulation of enolase expression in methicillin-resistant Staphylococcus aureus CC398 by gene ontology analysis; format: functional
[2] = system: Staphylococcus aureus; assay: Bactericidal activity against methicillin-resistant Staphylococcus aureus CC398 assessed as reduction in bacterial viability measured after 15 hrs by real-time microscopic analysis; format: functional
[3] = system: Staphylococcus aureus; assay: Downregulation of aminoacyl-tRNA-synthetase expression in methicillin-resistant Staphylococcus aureus CC398 in the presence of methicillin by gene ontology analysis; format: functional
[4] = system: Staphylococcus aureus; assay: Upregulation of GrpE protein expression in methicillin-resistant Staphylococcus aureus CC398 in the presence of methicillin by gene ontology analysis; format: functional
[5] = system: Staphylococcus aureus; assay: Downregulation of Threonine synthase expression in methicillin-resistant Staphylococcus aureus CC398 in the presence of methicillin by gene ontology analysis; format: functional
[6] = system: Staphylococcus aureus; assay: Upregulation of ATP synthase subunit alpha expression in methicillin-resistant Staphylococcus aureus CC398 in the presence of methicillin by gene ontology analysis; format: functional
[7] = system: Staphylococcus aureus; assay: Potentiation of methicillin-induced antibacterial activity against methicillin-resistant Staphylococcus aureus CC398 assessed as reduction in methicillin MIC at 2.5 microg/ml relative to control; format: functional; parameters: scale not given: the % may be the effect or the level left; settings: dose 2.5 µg/ml
[8] = system: Staphylococcus aureus; assay: Upregulation of ATP-dependent protease ATPase subunit […] expression in methicillin-resistant Staphylococcus aureus CC398 in the presence of methicillin by gene ontology analysis; format: functional
[9] = system: Staphylococcus aureus; assay: Potentiation of methicillin-induced antibacterial activity against methicillin-resistant Staphylococcus aureus CC398 assessed as methicillin MIC at 2.5 microg/ml; format: functional; settings: dose 2.5 µg/ml
[10] = system: Staphylococcus aureus; assay: Downregulation of phosphoglycerate kinase expression in methicillin-resistant Staphylococcus aureus CC398 in the presence of methicillin by gene ontology analysis; format: functional
[11] = system: Staphylococcus aureus; assay: Downregulation of superoxide dismutase expression in methicillin-resistant Staphylococcus aureus CC398 in the presence of methicillin by gene ontology analysis; format: functional
[12] = system: Staphylococcus aureus; assay: Antibacterial activity against methicillin-resistant Staphylococcus aureus CC398 assessed as reduction in bacterial growth measured after 4 hrs by real-time microscopic analysis; format: functional
[13] = system: Staphylococcus aureus; assay: Downregulation of cysteine synthase expression in methicillin-resistant Staphylococcus aureus CC398 in the presence of methicillin by gene ontology analysis; format: functional
[14] = system: Staphylococcus aureus; assay: Downregulation of catalase expression in methicillin-resistant Staphylococcus aureus CC398 in the presence of methicillin by gene ontology analysis; format: functional
[15] = system: Staphylococcus aureus; assay: Potentiation of methicillin-induced antibacterial activity against methicillin-resistant Staphylococcus aureus CC398 assessed as methicillin MBC at 2.5 microg/ml; format: functional; settings: dose 2.5 µg/ml
[16] = system: Staphylococcus aureus; assay: Antibacterial activity against methicillin-resistant Staphylococcus aureus CC398 assessed as inhibition of bacterial growth at lower concentration incubated for 15 hrs by real-time microscopic analysis; format: functional, organism-based
[17] = system: Staphylococcus aureus; assay: Upregulation of ATP synthase subunit beta expression in methicillin-resistant Staphylococcus aureus CC398 in the presence of methicillin by gene ontology analysis; format: functional
[18] = Selectivity ratio of MBC for bactericidal activity against methicillin-resistant Staphylococcus aureus CC398 to MIC for antibacterial activity against methicillin-resistant Staphylococcus aureus CC398; format: functional
[19] = system: Staphylococcus aureus; assay: Downregulation of Carbamoyl-phosphate synthase small chain expression in methicillin-resistant Staphylococcus aureus CC398 in the presence of methicillin by gene ontology analysis; format: functional
[20] = system: Staphylococcus aureus; assay: Antibacterial activity against methicillin-resistant Staphylococcus aureus CC398 assessed as increase in cell density at 2.5 microg/ml measured after 15 hrs by real-time microscopic analysis relative to control; format: functional; settings: dose 2.5 µg/ml
[21] = system: Staphylococcus aureus; assay: Downregulation of pyruvate kinase expression in methicillin-resistant Staphylococcus aureus CC398 in the presence of methicillin by gene ontology analysis; format: functional
[22] = system: Staphylococcus aureus; assay: Antibacterial activity against methicillin-resistant Staphylococcus aureus CC398 assessed as inhibition of bacterial growth at higher concentration incubated for 15 hrs by real-time microscopic analysis; format: functional, organism-based
[23] = system: Staphylococcus aureus; assay: Upregulation of ATP synthase subunit B expression in methicillin-resistant Staphylococcus aureus CC398 in the presence of methicillin by gene ontology analysis; format: functional
[24] = system: Staphylococcus aureus; assay: Upregulation of PBP2 protein expression in methicilin-resistant Staphylococcus aureus CC398 in the presence of methicillin by gene ontology analysis; format: functional
[25] = system: Staphylococcus aureus; assay: Downregulation of serine hydroxy methyltransferase expression in methicillin-resistant Staphylococcus aureus CC398 in the presence of methicillin by gene ontology analysis; format: functional
[26] = system: Staphylococcus aureus; assay: Potentiation of methicillin-induced antibacterial activity against methicillin-resistant Staphylococcus aureus CC398 assessed as ratio of methicillin MBC to MIC at 2.5 microg/ml; format: functional; settings: dose 2.5 µg/ml
[27] = system: Staphylococcus aureus; assay: Upregulation of peptide chain release factor 1 expression in methicillin-resistant Staphylococcus aureus CC398 in the presence of methicillin; format: functional
[28] = system: Staphylococcus aureus; assay: Upregulation of GTP-binding protein typeA expression in methicillin-resistant Staphylococcus aureus CC398 in the presence of methicillin by gene ontology analysis; format: functional
[29] = system: Staphylococcus aureus; assay: Antibacterial activity against methicillin-resistant Staphylococcus aureus CC398 assessed as increase in cell density at 1.25 microg/ml by real-time microscopic analysis relative to control; format: functional; settings: dose 1.25 µg/ml; time 15 hrs
[30] = system: Staphylococcus aureus; assay: Downregulation of isocitrate dehydrogenase expression in methicillin-resistant Staphylococcus aureus CC398 in the presence of methicillin by gene ontology analysis; format: functional
[31] = system: Staphylococcus aureus; assay: Upregulation of elongation factor P expression in methicillin-resistant Staphylococcus aureus CC398 in the presence of methicillin by gene ontology analysis; format: functional
[32] = system: Staphylococcus aureus; assay: Downregulation of succinate-CoA synthase expression in methicillin-resistant Staphylococcus aureus CC398 in the presence of methicillin by gene ontology analysis; format: functional
[33] = system: Staphylococcus aureus; assay: Upregulation of proline-tRNA ligase expression in methicillin-resistant Staphylococcus aureus CC398 in the presence of methicillin by gene ontology analysis; format: functional
[34] = system: Staphylococcus aureus; assay: Downregulation of elongation factor Tu expression in methicillin-resistant Staphylococcus aureus CC398 in the presence of methicillin by gene ontology analysis; format: functional
[35] = system: Staphylococcus aureus; assay: Downregulation of elongation factor G expression in methicillin-resistant Staphylococcus aureus CC398 in the presence of methicillin by gene ontology analysis; format: functional
[36] = system: Staphylococcus aureus; assay: Potentiation of methicillin-induced antibacterial activity against methicillin-resistant Staphylococcus aureus CC398 assessed as ratio of methicillin MBC to MIC at 7.5 microg/ml; format: functional; settings: dose 7.5 µg/ml
[37] = system: Staphylococcus aureus; assay: Downregulation of fructose-1,6-bisphosphate aldolase expression in methicillin-resistant Staphylococcus aureus CC398 in the presence of methicillin by gene ontology analysis; format: functional
[38] = system: Staphylococcus aureus; assay: Downregulation of isoleucine-tRNA-synthetase expression in methicillin-resistant Staphylococcus aureus CC398 in the presence of methicillin by gene ontology analysis; format: functional
[39] = system: Staphylococcus aureus; assay: Antibacterial activity against methicillin-resistant Staphylococcus aureus CC398 assessed as increase in cell density at 5 microg/ml measured after 15 hrs by real-time microscopic analysis relative to control; format: functional; settings: dose 5 µg/ml
[40] = system: Staphylococcus aureus; assay: Downregulation of valine-tRNA-synthetase expression in methicillin-resistant Staphylococcus aureus CC398 in the presence of methicillin by gene ontology analysis; format: functional
[41] = system: Staphylococcus aureus; assay: Upregulation of DNA-directed RNA polymerase subunit omega expression in Staphylococcus aureus CC398 in the presence of methicillin by gene ontology analysis; format: functional
[42] = system: Staphylococcus aureus; assay: Downregulation of 2,3-bisphosphoglycerate-independent phosphoglycerate mutase expression in methicillin-resistant Staphylococcus aureus CC398 in the presence of methicillin by gene ontology analysis; format: functional
[43] = system: Staphylococcus aureus; assay: Potentiation of methicillin-induced antibacterial activity against methicillin-resistant Staphylococcus aureus CC398 assessed as methicillin MBC at 7.5 microg/ml; format: functional; settings: dose 7.5 µg/ml
[44] = system: Staphylococcus aureus; assay: Downregulation of arginine-tRNA-synthetase expression in methicillin-resistant Staphylococcus aureus CC398 in the presence of methicillin by gene ontology analysis; format: functional
[45] = system: Staphylococcus aureus; assay: Potentiation of methicillin-induced antibacterial activity against methicillin-resistant Staphylococcus aureus CC398 assessed as methicillin MIC at 7.5 microg/ml; format: functional; settings: dose 7.5 µg/ml
[46] = system: Staphylococcus aureus; assay: Upregulation of SepF expression in Staphylococcus aureus CC398 in the presence of methicillin by gene ontology analysis; format: functional
[47] = system: Staphylococcus aureus; assay: Upregulation of PBP2 protein expression in Staphylococcus aureus CC398 by gene ontology analysis; format: functional
[48] = system: Staphylococcus aureus; assay: Antibacterial activity against methicillin-resistant Staphylococcus aureus CC398 assessed as increase in cell density at 1 microg/ml measured after 15 hrs by real-time microscopic analysis relative to control; format: functional; settings: dose 1 µg/ml
[49] = system: Staphylococcus aureus; assay: Upregulation of ATP synthase subunit b expression in Staphylococcus aureus CC398 by gene ontology analysis; format: functional
[50] = system: Staphylococcus aureus; assay: Upregulation of ATP synthase subunit alpha expression in Staphylococcus aureus CC398 by gene ontology analysis; format: functional
[51] = system: Staphylococcus aureus; assay: Upregulation of ATP synthase subunit beta expression in Staphylococcus aureus CC398 by gene ontology analysis; format: functional
[52] = system: Staphylococcus aureus; assay: Antibacterial activity against methicillin-resistant Staphylococcus aureus CC398 assessed as increase in cell growth rate by measuring maximal response at 1 microg/ml after 15 hrs by real-time microscopic analysis relative to control; format: functional; settings: dose 1 µg/ml

Structure (SMILES)	Activity [1]	MBC [2] [µg/mL]	Activity [4]	Activity [6]	Activity [7] [%]	MBC [9] [µg/mL]	Activity [10]	Activity [11]	MIC [12] [µg/mL]	Activity [14]	MIC [15] [µg/mL]	Activity [16]	Activity [17]	Ratio [18]	Activity [21]	Activity [22]	Activity [23]	Ratio [26]	also measured
CCCCCc1cc(O)c2c(c1)OC(C)(C)c1ccc(C)cc1-2 [CANNABINOL]	Active	7.5 (≈ 24.2 µM)	Active	Active	87.5	1	Active	Active	2.5 (≈ 8.05 µM)	Active	0.063	inactive	Active	3	Active	Active	Active	16	Activity [3]: Active; Activity [5]: Active; Activity [8]: Active; Activity [13]: Active; Activity [19]: Active; Activity [20]: 29%; Activity [24]: Active; Activity [25]: Active
C=C(C)[C@@H]1CCC(C)=C[C@H]1c1c(O)cc(CCCCC)cc1O [CANNABIDIOL]	Active	5 (≈ 15.9 µM)		Active	87.5	1	Active	Active	2.5 (≈ 7.95 µM)	Active	0.063	inactive	Active	2		Active	Active	16	Activity [27]: Active; Activity [28]: Active; Activity [29]: 19%; Activity [30]: Active; Activity [31]: Active; Activity [32]: Active; Activity [33]: Active
CCCCCc1cc(O)c2c(c1)OC(C)(C)[C@@H]1CCC(C)=C[C@@H]21 [DRONABINOL]	Active	20 (≈ 63.6 µM)	Active	Active	93.8		Active	Active	7.5 (≈ 23.8 µM)			inactive	Active	2.67	Active	Active	Active		Activity [34]: Active; Activity [35]: Active; Ratio [36]: 8; Activity [37]: Active; Activity [38]: Active; Activity [39]: 45%; Activity [40]: Active; Activity [41]: Active; Activity [42]: Active; MBC [43]: 0.5 µg/mL; Activity [44]: Active; MIC [45]: 0.063 µg/mL; Activity [46]: Active
COc1cccc(OC)c1C(=O)N[C@@H]1C(=O)N2[C@@H]1SC(C)(C)[C@@H]2C(=O)O [METHICILLIN]		8 (≈ 21 µM)							4 (≈ 10.5 µM)										Activity [47]: Active; Activity [48]: 43%; Activity [49]: Active; Activity [50]: Active; Activity [51]: Active; Activity [52]: 143%
